# Measured values as given in patent US20250270203A1, “NICOTINIC ACETYLCHOLINE RECEPTOR LIGANDS” (Philip Morris Products S.A., priority 2022, published 2025).
# Where two headings read alike, the source gives them in different places.
# Experiments:
# [1] = molecular target: human α7 nAChR (Homo sapiens (Human), UniProt P36544); experiment: biochemical; format: binding; conditions: for nAChR subtype preference / selectivity: in words, from Ki at α7, α4β2, α3β4
# [2] = molecular target: α4β2 nAChR (Homo sapiens (Human), UniProt P17787+P43681); experiment: nAChR binding affinity, α4β2 subtype
# Sequence of α4β2 nAChR (P43681 29-627): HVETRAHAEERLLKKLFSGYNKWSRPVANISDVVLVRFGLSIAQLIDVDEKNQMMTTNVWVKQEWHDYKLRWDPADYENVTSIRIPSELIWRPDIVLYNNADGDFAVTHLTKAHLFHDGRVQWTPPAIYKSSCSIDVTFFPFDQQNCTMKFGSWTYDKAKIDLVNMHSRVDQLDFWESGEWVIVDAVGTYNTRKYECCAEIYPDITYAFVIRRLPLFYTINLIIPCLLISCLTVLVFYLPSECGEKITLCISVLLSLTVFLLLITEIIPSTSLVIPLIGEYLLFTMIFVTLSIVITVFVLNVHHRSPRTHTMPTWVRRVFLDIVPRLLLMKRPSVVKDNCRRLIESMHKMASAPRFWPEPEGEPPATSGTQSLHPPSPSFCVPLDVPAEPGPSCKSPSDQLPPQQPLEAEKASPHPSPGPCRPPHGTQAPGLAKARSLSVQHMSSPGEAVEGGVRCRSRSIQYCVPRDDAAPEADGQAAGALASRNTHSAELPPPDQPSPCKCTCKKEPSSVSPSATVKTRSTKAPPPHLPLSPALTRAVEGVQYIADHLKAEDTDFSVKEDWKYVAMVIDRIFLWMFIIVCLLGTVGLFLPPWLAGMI
# Sequence of α4β2 nAChR (P17787 26-502): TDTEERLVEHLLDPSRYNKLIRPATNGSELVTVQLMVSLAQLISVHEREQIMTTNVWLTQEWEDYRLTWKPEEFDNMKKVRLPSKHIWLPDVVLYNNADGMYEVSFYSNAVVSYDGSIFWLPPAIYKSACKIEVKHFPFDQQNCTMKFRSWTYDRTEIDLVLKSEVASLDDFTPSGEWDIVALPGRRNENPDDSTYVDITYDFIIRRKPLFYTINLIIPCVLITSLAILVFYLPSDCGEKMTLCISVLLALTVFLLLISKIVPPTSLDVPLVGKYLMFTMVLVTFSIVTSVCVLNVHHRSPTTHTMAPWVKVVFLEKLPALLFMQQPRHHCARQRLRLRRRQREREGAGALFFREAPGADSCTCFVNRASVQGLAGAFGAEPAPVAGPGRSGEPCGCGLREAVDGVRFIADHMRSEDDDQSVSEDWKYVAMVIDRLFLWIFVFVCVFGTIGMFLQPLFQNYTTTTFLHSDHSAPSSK
# [3] = molecular target: α3β4 nAChR (Homo sapiens (Human), UniProt P30926+P32297); experiment: nAChR binding affinity, α3β4 subtype; conditions: Table 2
# Sequence of α3β4 nAChR (P32297 32-505): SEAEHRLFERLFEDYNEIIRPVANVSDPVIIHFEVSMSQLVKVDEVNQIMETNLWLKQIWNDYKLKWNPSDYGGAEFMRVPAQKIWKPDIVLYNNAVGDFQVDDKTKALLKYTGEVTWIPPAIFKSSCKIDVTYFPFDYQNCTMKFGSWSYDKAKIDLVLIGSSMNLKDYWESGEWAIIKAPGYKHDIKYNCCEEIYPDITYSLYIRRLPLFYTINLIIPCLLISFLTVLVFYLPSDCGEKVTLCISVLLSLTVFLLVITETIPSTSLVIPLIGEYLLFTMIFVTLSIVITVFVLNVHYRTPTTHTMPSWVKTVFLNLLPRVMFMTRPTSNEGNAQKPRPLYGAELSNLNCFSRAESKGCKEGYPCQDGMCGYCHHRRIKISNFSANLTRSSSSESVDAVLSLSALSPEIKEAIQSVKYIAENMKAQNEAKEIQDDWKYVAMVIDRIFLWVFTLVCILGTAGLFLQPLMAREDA
# Sequence of α3β4 nAChR (P30926 22-498): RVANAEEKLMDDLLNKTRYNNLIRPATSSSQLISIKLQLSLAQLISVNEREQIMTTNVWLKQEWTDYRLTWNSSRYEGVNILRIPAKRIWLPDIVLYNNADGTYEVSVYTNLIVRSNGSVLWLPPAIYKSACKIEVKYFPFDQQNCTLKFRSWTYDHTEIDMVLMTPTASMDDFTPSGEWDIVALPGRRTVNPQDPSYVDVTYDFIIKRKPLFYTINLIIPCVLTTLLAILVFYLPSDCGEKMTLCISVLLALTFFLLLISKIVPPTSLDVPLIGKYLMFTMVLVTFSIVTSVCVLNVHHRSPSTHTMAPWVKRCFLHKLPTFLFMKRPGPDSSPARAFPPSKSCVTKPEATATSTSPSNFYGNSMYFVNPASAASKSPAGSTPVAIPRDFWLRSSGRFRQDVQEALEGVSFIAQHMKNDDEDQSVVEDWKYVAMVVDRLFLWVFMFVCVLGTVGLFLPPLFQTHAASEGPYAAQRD
# [4] = tested on: citric acid-induced cough in guinea pigs; experiment: Citric acid-induced cough in guinea pigs, intraperitoneal injection (Example 27)
# Experimental: As depicted in FIG. 1B and FIG. 1C, cough induction is conducted by placing guinea pigs into a whole body plethysmograph (WBP) equipped with a Aeroneb™ vibrating mesh nebulizer, and including pressure transducers and detection equipment (EMKA technologies). A primary microphone is supplied (EMKA Technologies) for acoustic confirmation of cough frequency in the form of a digital trace using the EMKA software.
# A secondary microphone (T1 True Wireless Earphone, QCY®) also is placed in the chamber and connected to a smartphone via Bluetooth to enable the observers to hear the audible sounds during the test. A bias flow rate of 2 L/min is used to continuously draw either atmospheric air (during the fresh air period) or aerosolized citric acid from the nebulizer into the WBP and expel it out through an exhaust pipe. Chamber pressure in the WBP is set to be between −10 to −30 Pa relative to ambient pressure.
# Prior to the citric acid challenge, the guinea pigs are administered (intraperitoneal injection) with vehicle control, positive control or test compound (where applicable) with different dosage (Table 3) and placed individually into the WBP for at least 5 minutes in order to habituate.
# The procedure was as follows: Injection→guinea pig in box having citric acid for 10 mins (counting the cough)→box then fill with air for 5 mins (counting the cough)→guinea pig moved to recovery cage.
# Appropriate concentration of citric acid is used to generate aerosol and deliver to WBP for 10 minutes with constant recording of pressure measurements. The mean concentration of citric acid was 1283.1±137.2 μg/L. Upon completion of citric acid challenge, the guinea pig is allowed to recover and continue recording of cough counts for another 5 minutes. Subsequently, the guinea pigs are closely monitored in recovery cage for full recovery from the challenge and that no adverse events were present before returning the animals to its home cage. Cough counts (CCnt) are recorded over a period of at least 10 mins, starting from citric acid stimulation and cough incubation period (CIP) are defined as the time it takes to cough for the first time after citric acid stimulation.
# The data were analysed using Oneway ANOVA (* p<0.05, ** p<0.01, *** p<0.001, **** p<0.0001) when compared to saline control, and each column represents Mean±SEM.
# [5] = tested on: citric acid-induced cough in guinea pigs; experiment: Citric acid-induced cough in guinea pigs, dry powder insufflation, nebulisation, oral and intraperitoneal administration (Example 28); format: in vivo, guinea pig
# Experimental: The mean concentration of citric acid was 1156.0±111.8 μg/L for both routes.
# Regarding oral administration, the duration between compound administration and start of citric acid challenge was 30 minutes. The data was compared to atmospheric air (control).
# Regarding intraperitoneal administration, compounds were administered approximately 10-15 mins before the cough challenge (citric acid inhalation challenge). Test compounds were dosed at between 1-30 mg/kg (as described herein for each experiment) while the positive control (codeine) was dosed at 30 mg/kg, in each case using a dosing volume of 10 ml/kg, by a single intraperitoneal injection.
# [6] = Table 1, [125I] α-Bungarotoxin, Cheng-Prusoff, read-out: α7 Ki
# Sequence of human α7 nAChR (P36544 23-502 limits assumed): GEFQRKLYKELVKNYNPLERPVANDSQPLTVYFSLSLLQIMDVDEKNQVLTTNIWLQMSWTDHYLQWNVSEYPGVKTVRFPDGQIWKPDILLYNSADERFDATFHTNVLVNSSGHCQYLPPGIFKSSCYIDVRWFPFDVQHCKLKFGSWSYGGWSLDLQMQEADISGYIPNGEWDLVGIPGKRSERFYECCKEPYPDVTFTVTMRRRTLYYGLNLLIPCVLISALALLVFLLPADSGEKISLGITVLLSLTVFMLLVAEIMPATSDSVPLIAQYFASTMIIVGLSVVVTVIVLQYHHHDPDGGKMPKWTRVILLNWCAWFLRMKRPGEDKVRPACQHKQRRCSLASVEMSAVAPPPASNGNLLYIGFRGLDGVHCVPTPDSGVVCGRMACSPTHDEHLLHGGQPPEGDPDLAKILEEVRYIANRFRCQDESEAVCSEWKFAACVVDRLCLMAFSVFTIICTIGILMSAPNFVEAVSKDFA
Compound,Ki [1],Ki [3],"Ki ([2]; Table 2, read-out: Ki α4β2)",also measured
"c1cncc(C[C@@H]2[C@@H](Oc3cnc(-c4ccc5[nH]ccc5c4)cn3)C3CCN2CC3)c1 (racemic) [Compound 9, trans-5-[5-[2-(3-Pyridylmethyl)quinuclidin-3-yl]oxypyrazin-2-yl]-1H-indole]",0.24 µM,–,–,–
"c1cncc(C[C@@H]2[C@@H](Oc3ccc(-c4ccc5[nH]ccc5c4)nn3)C3CCN2CC3)c1 (racemic) [Compound 11, trans-5-[6-[2-(3-Pyridylmethyl)quinuclidin-3-yl]oxypyridazin-3-yl]-1H-indole]",0.0014 µM,–,–,Ki [2]: 0.073 µM
"c1cncc(C[C@@H]2[C@@H](Oc3nnc(-c4ccc5[nH]ccc5c4)s3)C3CCN2CC3)c1 (racemic) [Compound 16, trans-2-(1H-Indol-5-yl)-5-[2-(3-pyridylmethyl)quinuclidin-3-yl]oxy-1,3,4-thiadiazole]",–,0.44 µM,0.22 µM,–
"c1ccc(-c2nnc(O[C@H]3C4CCN(CC4)[C@@H]3Cc3cccnc3)s2)cc1 (racemic) [Compound 20, trans-2-Phenyl-5-[2-(3-pyridylmethyl)quinuclidin-3-yl]oxy-1,3,4-thiadiazole]",0.32 µM,–,–,–
"c1cncc(C[C@@H]2[C@H](Oc3ccc(-c4ccc5[nH]ccc5c4)nn3)C3CCN2CC3)c1 (relative stereo) [Compound 7, cis-5-[6-[2-(3-Pyridylmethyl)quinuclidin-3-yl]oxypyridazin-3-yl]-1H-indole]",0.059 µM,0.2 µM,–,nAChR subtype preference / selectivity [1]: preferably binds to the α4β2 nAChR
"c1cncc(C[C@@H]2[C@@H](Oc3cnc(-c4ccc5[nH]ccc5c4)cn3)C3CCN2CC3)c1 (relative stereo) [Compound 9, trans-5-[5-[2-(3-Pyridylmethyl)quinuclidin-3-yl]oxypyrazin-2-yl]-1H-indole]",–,0.4 µM,0.23 µM,–
"c1cncc(C[C@@H]2[C@@H](Oc3ccc4ccccc4n3)C3CCN2CC3)c1 (relative stereo) [Compound 18, trans-2-[2-(3-Pyridylmethyl)quinuclidin-3-yl]oxyquinoline]",2.92 µM,–,–,–
"c1ccc(-c2ccc(O[C@H]3C4CCN(CC4)[C@@H]3Cc3cccnc3)nn2)cc1 (relative stereo) [Compound 19, trans-3-(6-Phenylpyridazin-3-yl)oxy-2-(3-pyridylmethyl) quinuclidine]",0.1 µM,–,–,–
"c1ccc(-c2nnc(O[C@H]3C4CCN(CC4)[C@@H]3Cc3cccnc3)s2)cc1 (relative stereo) [Compound 20, trans-2-Phenyl-5-[2-(3-pyridylmethyl)quinuclidin-3-yl]oxy-1,3,4-thiadiazole]",0.32 µM,–,–,–
"c1cncc(C[C@@H]2[C@@H](Oc3ccc(-c4ccc5[nH]ccc5c4)nn3)C3CCN2CC3)c1 [2R,3S-11, (2R,3S)-5-[6-[2-(3-Pyridylmethyl)quinuclidin-3-yl]oxypyridazin-3-yl]-1H-indole]",–,1.21 µM,0.73 µM,"Ki ([1]; Table 2, read-out: Ki α7): 0.034 µM"
"c1cncc(C[C@H]2[C@H](Oc3ccc(-c4ccc5[nH]ccc5c4)nn3)C3CCN2CC3)c1 [2S,3R-11, (2S,3R)-5-[6-[2-(3-Pyridylmethyl)quinuclidin-3-yl]oxypyridazin-3-yl]-1H-indole]",–,0.78 µM,0.077 µM,"Ki ([1]; Table 2, read-out: Ki α7): 0.001 µM; nAChR subtype preference / selectivity [1]: optimal and selective interaction with α7 nAChR"
"c1cncc(C[C@@H]2[C@@H](Oc3ccc(-c4ccc5[nH]ccc5c4)cn3)C3CCN2CC3)c1 [Compound 5, trans-5-[6-[2-(3-Pyridylmethyl)quinuclidin-3-yl]oxy-3-pyridyl]-1H-indole]",0.058 µM,–,–,–
"c1cncc(C[C@@H]2[C@@H](Oc3ccc(-c4ccc5[nH]ccc5c4)nn3)C3CCN2CC3)c1 [Compound 11, trans-5-[6-[2-(3-Pyridylmethyl)quinuclidin-3-yl]oxypyridazin-3-yl]-1H-indole]",0.001 µM,–,–,–
"Nc1nc2ccc(-c3ccc(OC4C5CCN(CC5)C4Cc4cccnc4)nn3)cc2s1 (stereo not drawn) [Compound 12, trans-6-[6-[2-(3-Pyridylmethyl)quinuclidin-3-yl]oxypyridazin-3-yl]-1,3-benzothiazol-2-amine]",–,1.08 µM,0.05 µM,"Ki [1, 6]: 0.019 µM; Ki ([1]; Table 2, read-out: Ki α7): 0.0188 µM"
"c1cncc(C[C@@H]2[C@@H](Oc3nnc(-c4ccc5[nH]ccc5c4)s3)C3CCN2CC3)c1 [Compound 16, trans-2-(1H-Indol-5-yl)-5-[2-(3-pyridylmethyl)quinuclidin-3-yl]oxy-1,3,4-thiadiazole]",–,–,–,"Ki [1, 6]: 0.011 µM; number of coughs (citric acid-induced cough counts) ([4]; i.p. 1 mg/kg, p<0.0001 vs saline control (17 coughs)): 5; cough incubation period ([4]; i.p. 1 mg/kg, p<0.001 vs saline control (206 sec)): 548 s; number of coughs (citric acid-induced cough counts) ([4]; i.p. 3 mg/kg, p<0.001 vs saline control (17 coughs)): 5; cough incubation period ([4]; i.p. 3 mg/kg, p<0.01 vs saline control (206 sec)): 455 s; number of coughs (citric acid-induced cough counts) ([4]; i.p. 9.5 mg/kg, p<0.01 vs saline control (17 coughs)): 7; cough incubation period ([4]; i.p. 9.5 mg/kg, p<0.05 vs saline control (206 sec)): 489 s; citric acid-induced cough counts compared with air control ([5]; dry powder insufflated, 1 mg/kg, p=0.0004): significantly reduced; citric acid-induced cough counts compared with air control ([5]; dry powder insufflated, 2 mg/kg, p=0.0042): significantly reduced; citric acid-induced cough counts compared with air control ([5]; nebulised, 0.4 mg/kg, 58 min exposure, p=0.0023): significantly reduced; citric acid-induced cough counts compared with air control ([5]; orally administered, 9.5 mg/kg, p<0.05): significantly reduced; cough frequency compared to negative control (saline) ([5]; prophylactic intraperitoneal treatment at 1, 3 and 9.5 mg/kg, FIG. 8): suppression of cough frequency"
